Molecules are shown by their SMILES.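 Compound exposure: 48 hours, 5 concentrations, 96-well plates. At the TGI there is no net growth.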

In PubChem BioAssay (NCI) one finds TGI data, which are given here for 13 compounds.

Common to all, as to assay: NCI anticancer screen, dose series, 48 h
Test [1] relates to SK-MEL-5 melanoma.
The subject of test [2] is M14 melanoma.
Test [3] relates to K-562 leukemia.
Test [4] relates to CAKI-1 renal.
Test [5] has as its system NCI-H226 lung.
Test [6] has as its system RPMI-8226 leukemia.
In test [7] the test system is MOLT-4 leukemia.
In test [8] the test system is A549 NSCLC.
For test [9], the system named is TK-10 renal.
Test [10] deals with HCT-15 colon.

Consider `CCCCCCc1cc2cc(-c3csc(-c4ccc(OC)cc4)n3)c(=O)oc2cc1O`, for which the TGI is 47.7 µM in test [1]; 27.5 µM in test [2]; > 100 µM in test [3]; 20 µM in test [4]; 30.6 µM in test [5]; > 100 µM in test [6]. Further, the TGI is > 100 µM in [7], 32.8 µM in test [8], 34.1 µM in test [9] and 46.8 µM in test [10].
In the case of `C#CCOCC12C=CC(O1)C1COC(=O)C12` (stereo not drawn), the TGI in [1], in test [2], in [3], in test [4], in [5] and in test [6] was > 100 µM each time. In addition, the TGI in [7], in test [8], in test [9] and in [10] was > 100 µM in each case.
Turning to `O=C(Sc1c(-c2ccccc2)c(=O)n(-c2ccccc2)c(=S)n1-c1ccccc1)c1ccco1`, the TGI is > 100 µM in test [1]; > 100 µM in test [2]; > 100 µM in test [3]; > 100 µM in test [4]; > 100 µM in test [5]; > 83.7 µM in [6]. For the same compound, the TGI in test [7], in test [8], in test [9] and in test [10] was > 100 µM throughout.
For the compound `COCC#C[C@@]1(O)CCCCC1CC(OC)OC` (stereo partly drawn), the TGI is > 100 µM in [1]; > 100 µM in [2]; > 100 µM in test [3]; > 100 µM in test [4]; > 100 µM in test [5]; 94.5 µM in test [6]. For the same compound, the TGI in [7], in test [8], in [9] and in test [10] was > 100 µM in each case.
For the compound `CC[N+]1(C)CCC(O)(c2ccc(C)cc2)C(C(=O)c2ccc(C)cc2)C1` (stereo not drawn), the TGI in test [1] was > 100 µM; in test [2], > 100 µM; in test [3], 37.5 µM; in [4], 61.4 µM; in [5], > 100 µM; in test [6], 37.3 µM. Moreover, the TGI is 48.1 µM in [7], > 100 µM in test [8], 47.5 µM in [9] and 45.9 µM in [10].
Turning to `CNC(=S)NNc1ncnc2c1c(-c1ccc(Cl)cc1)cn2-c1ccc(C)cc1`, the TGI was 20.8 µM in [1]; 26.5 µM in [2]; > 100 µM in [3]; 23.2 µM in [4]; 57.5 µM in [5]; 75.9 µM in test [6]. For the same compound, the TGI in test [7] is > 100 µM; in test [8] it was 19.2 µM; in test [9], 35 µM; in test [10], 21 µM.
As for `Oc1c(OCc2nnc(CCCCCCCCc3nnc(COc4ccc5ccccc5c4O)o3)o2)ccc2ccccc12`, the TGI in [1], in test [2], in test [3], in test [4], in test [5] and in [6] was > 100 µM throughout. The TGI in [7], in test [8], in test [9] and in test [10] was > 100 µM each time.
For the compound `CCOc1ccc(N=Nc2ccc3cc(/C(C)=N/NC(=O)/C(C#N)=C\c4ccc(N(CCC#N)CCC#N)cc4)c(=O)oc3c2)cc1`, the TGI in test [1], in test [2], in test [3], in [4], in test [5] and in test [6] was > 10 µM in each case. For the same compound, the TGI in test [7], in test [8], in [9] and in [10] was > 10 µM throughout.
On to `O=c1[nH]c(=O)n(C2CC(O)C(CO)O2)cc1OC/C=C/Cc1ccccc1` (stereo not drawn), for which the TGI in test [1], in test [2], in [3], in test [4], in [5] and in test [6] was > 100 µM in each case. The TGI in test [7], in test [8], in [9] and in test [10] was > 100 µM in each case.
As for `CCOC(=O)/C=C(/C=C\COC1CCCCO1)c1ccccc1` (stereo not drawn), the TGI in test [1], in test [2], in [3], in [4], in [5] and in [6] was > 100 µM throughout. Also, the TGI was 80.3 µM in test [7], > 100 µM in test [8], > 100 µM in test [9] and > 100 µM in test [10].
Regarding `O=[N+]([O-])/C(Cl)=C(/C(Cl)=C(Cl)Cl)N1CCCCC1`, the TGI stood at 20.2 µM in [1]; 23.3 µM in test [2]; 25.3 µM in [3]; 24.9 µM in test [4]; 34.1 µM in test [5]; 18.2 µM in [6]. Besides, the TGI in test [7] amounted to 11.7 µM; in test [8], 28.5 µM; in test [9], 35.8 µM; in [10] it was 19.1 µM.
As for `N#Cc1nc(C2CCC(=O)O2)oc1N` (stereo not drawn), the TGI in test [1], in test [2], in [3], in [4], in [5] and in test [6] was > 100 µM each time. The TGI in [7], in test [9] and in [10] was > 100 µM in each case.
`Cc1cn(CCCCCOC(=O)NC(CCCNC(N)=O)C(=O)O)c(=O)[nH]c1=O` (stereo not drawn): the TGI in [2], in test [3], in test [4], in test [5], in test [6] and in [7] was > 100 µM each time. Moreover, the TGI in [8], in test [9] and in [10] was > 100 µM each time.
